# Data reported in patent publication US20250127748A1, “METHODS FOR THE TREATMENT OF MIGRAINE AND RELATED HEADACHE SYMPTOMS USING TRICAPRYLIN” (priority 2021, published 2025).
# Experiments:
# [1] = system: participants with frequent migraine; experiment: randomised, double-blind, placebo-controlled study of tricaprylin as AC-SD-03 for the reduction of migraine; format: in vivo, human
# Text: This is a randomised, double-blind, placebo-controlled, parallel-group, multi-centre study of tricaprylin as AC-SD-03 compared with placebo for the reduction of migraine in participants with frequent migraine.
# Following a screening period of up to 2 weeks, the study duration is 17 weeks including a 4-week baseline measurement period, after which randomisation occurs, a 12-week treatment period and a 1-week safety follow-up period.
# The study will be completed in two parts. In Part 1, 54 participants will be randomised to receive tricaprylin as AC-SD-03, or placebo, in a 1:1 ratio. Once 54 participants are randomised, enrolment will be paused until the randomised participants have completed the study. Based on an unblinded analysis of the data from all evaluable patients from Part 1, a decision to proceed to Part 2 (enrolment of additional participants) will be taken. The decision to continue to Part 2 will be made by the Sponsor, based on a number of factors including the one-sided p-value for the analysis of the primary endpoint, ΔMDMth3, the safety and tolerability profile observed during Part 1, the observed between-subject variability, as well as trial conduct feasibility. The size of Part 2 will be determined by the between-subject variability observed in Part 1, and will be between 80 and 180 participants.
# Investigational Medicinal Products: The formulation AC-SD-03 contains the active compound tricaprylin and excipients, 1:1.5. Thus 75 g AC-SD-03 contains 30 g tricaprylin and 45 g excipients (carrier, emulsifiers and flavouring). The placebo formulation, AC-SD-03P, contains 30 g safflower oil in place of the active compound tricaprylin and identical excipients to the active formulation.
# Treatment Groups and Duration: At the Baseline Visit, all participants will receive a sentinel dose of 12.5 g AC-SD-03 (containing 5 g tricaprylin). […] Those that do tolerate the sentinel dose and meet other eligibility criteria, will enter the baseline measurement period of 4 weeks to determine migraine day participant eligibility for the study and to establish baseline data for comparison of endpoints during the study.
# After the 4 weeks baseline measurement period, those who record 4-24 migraine days per month will be randomised to AC-SD-03 or placebo (AC-SD-03P) and will titrate from 12.5 g twice a day to 75 g twice a day, over the course of 2 weeks. Participants who have fewer than four or greater than 24 headache days per month in the baseline period will be discontinued from the study. The participant should not be told the number of migraine headache days on which eligibility is based to avoid biased reporting.
# Once titration has completed, all participants will continue on the target dose they are on over an additional 10-week maintenance period.
# The primary endpoint will be change from baseline in the number of migraine headache days during Month 3 (ΔMDMth3).
# The secondary endpoints are: • Change from baseline in the number of migraine headache days during Month 1 (ΔMDMth1) and Month 2 (ΔMDMth2) of treatment and overall, from Months 1-3; • Change from baseline in duration of migraine of moderate to severe intensity during treatment months 1, 2 and 3; • Change from baseline in duration of migraine during treatment months 1, 2 and 3; • The proportion of participants with a 50% reduction from baseline in number of migraine headache days in treatment months 1, 2, and 3; • Change from baseline in monthly acute migraine medicine use during treatment months 1, 2 and 3; • Time to first usage of acute migraine medication; • Change from baseline Headache Impact Test (HIT-6) score at the end of Months 1, 2 and 3; • Incidence of adverse events; • Clinical safety laboratory tests; • Vital signs, ECGs, C-SSRS; […]
# [2] = in-vitro digestion assays of emulsion; format: in vitro ADME; conditions: intestinal and/or colon pH vs stomach pH
# Text: In certain embodiments, the emulsion formed may be stable at stomach pH, e.g., at a pH of about 1 to about 3, about 1.2 to 2.9, etc. In certain embodiments, the emulsion formed may be stable at intestinal and/or colon pH, e.g., at a pH of about 5 to about 7, about 5.5 to about 6.9, etc. […] In accordance with certain aspects of the disclosure, preferential release of tricaprylin in the intestines and/or colon rather than the stomach may increase bioavailability of the tricaprylin given the location of lipid digestion enzymes in these areas.
# [3] = system: trigeminal autonomic cephalgia (left hemi-cephalgia), person; experiment: case report: trigeminal autonomic cephalgia responsive to tricaprylin; format: in vivo, human
# Text: A person presented with a history of waxing and waning left hemi-cephalgia over the course of 10 years. Their past medical history included bilateral loss of hearing (right worse than left) and past episodes of dizziness leading to a diagnosis of possible Menieres disease. They had hyperlipedemia controlled with a statin. They had some excess weight (BMI 30.8), was a vegetarian and was physically active.
# The cephalgia was described as a dull achy non-throbbing pain that when present is continuous over the left side of the face and across the left scalp. The pain appeared to be centered around the eye and was described as if […] were being poked in the eye. The pain also involved the left cheek and left scalp. They could not identify any specific trigger to the pain but did note that it was accompanied by tenderness to touch of the scalp on the left side of the head, including sensitivity to hair brushing. When the pain was present they would be aware of it upon awakening in the morning and it would persist throughout the day.
# They had no other headache types, and had not experienced episodes of nasal stuffiness, or pupillary changes. They noted occasional excess lacrimation of the left eye. At one point they were investigated for potential ‘sinus problems’ and no sinus condition was diagnosed. […] […] self-medicated with occasional paracetamol which provided modest relief.
# The subject began a daily treatment regimen with Axona®, a medical food containing the active ingredient tricaprylin.
# At the time of presentation the headache had recurred to an intensity of 4-6/10 and they were restarted on a course of Axona®, starting with 5 g tricaprylin per day, increasing over 2 weeks to 20 g a day.
# CH attacks = conditions: Di Lorenzo et al 2018; cited from earlier work
smiles,measurement,setting,value
CCCCCCCC(=O)OCC(COC(=O)CCCCCCC)OC(=O)CCCCCCC [tricaprylin],"Discontinued treatment prior to completion, number of subjects","[1]; 12-week treatment, 40 treated",18
same,"Discontinued treatment prior to completion, percent of subjects","[1]; 12-week treatment, 40 treated",(45.0%)
same,"Primary reason for discontinuation: Adverse Event, number of subjects","[1]; 12-week treatment, 40 treated",12
same,"Primary reason for discontinuation: Adverse Event, percent of subjects","[1]; 12-week treatment, 40 treated",(30.0%)
same,"Change from baseline in migraine headache days, Month 2","[1]; Month 2, vs placebo, one-sided p=0.066 vs target of p<0.2",clinically-relevant benefit
same,"Change from baseline in migraine headache days, Month 3 (primary endpoint)","[1]; Month 3, EEITS, vs placebo, p=0.269 vs target of p<0.2","positive, clinically-relevant trend"
same,release of encapsulated tricaprylin from emulsion,[2],released from emulsion at intestinal and/or colon pH
CN(C)CCC=C1c2ccccc2CCc2ccccc21 [amitriptyline],effect on degree of discomfort,"[3]; 10 mg, earlier treatment of the same patient",reduced the degree of discomfort partially
same,adverse effect,"[3]; 10 mg, earlier treatment of the same patient, discontinued",fatigue
O=C(O)CCCO [GHB],prevention of CH attacks,CH attacks,has been shown to prevent CH attacks
CC(=O)Nc1ccc(O)cc1 [paracetamol],relief of cephalgia,[3]; occasional self-medication,modest relief
